Patent EP0375451A2, “Compounds having a renin-inhibiting activity” (BEECHAM GROUP PLC, priority 1988, dated 1990)
pIC50: −log10 of the molar value. Counter-ions that a name gives are not always drawn.

Target: T1, human renin (Homo sapiens, UniProt P00797)
T1 construct: from tissue; host or cells: human plasma from blood of healthy volunteers
T1 sequence (P00797 67-406): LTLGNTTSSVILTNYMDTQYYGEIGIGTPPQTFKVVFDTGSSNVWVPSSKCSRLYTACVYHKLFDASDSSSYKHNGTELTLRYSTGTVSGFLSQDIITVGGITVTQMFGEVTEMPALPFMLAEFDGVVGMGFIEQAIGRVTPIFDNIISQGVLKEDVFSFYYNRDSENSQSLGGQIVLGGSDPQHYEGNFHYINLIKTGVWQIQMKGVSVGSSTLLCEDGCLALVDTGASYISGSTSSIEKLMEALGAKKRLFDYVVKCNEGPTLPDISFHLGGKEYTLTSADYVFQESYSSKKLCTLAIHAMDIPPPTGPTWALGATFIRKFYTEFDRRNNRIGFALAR
Assay: In vitro human renin inhibition (renin activity in human plasma, angiotensin I radioimmunoassay)
Format: biochemical
Conditions: not given
Description: In vitro human renin inhibition
Renin inhibitory activity was estimated as the percentage change in renin activity in human plasma in the presence and absence of compound. The source of plasma was blood taken from healthy volunteers. Renin activity was defined by the difference in angiotensin I levels between two halves of a sample, one incubated at 37^o and the other at 4^o for 2h. Angiotensin I levels were measured using a ¹²⁵I- angiotensin I radioimmunoassay kit (NEN/DuPont, Stevenage). Results were calculated as the mean of at least two, duplicate determinations and IC₅₀ values were calculated by linear regression analysis of at least three concentrations of compound.

SMILES	pIC50
CC(=O)NCCNC(=O)C[C@H](O)[C@H](CC1CCCCC1)NC(=O)[C@H](CC(C)C)NC(=O)[C@H](Cc1ccccc1)NC(=O)CC1CS(=O)(=O)c2ccccc21 (stereo partly shown) [Example E6]	7.06
CC(C)C[C@H](NC(=O)[C@H](Cc1ccccc1)NC(=O)CCn1c(=O)[nH]c2ccccc21)C(=O)N[C@@H](CC1CCCCC1)[C@@H](O)CC(=O)NCCCn1ccnc1 [Example E41, (2,3-Dihydro-2-oxo-1H-benzimidazole-1-propanoyl)-Phe-Leu-ACHPA 3-(1-imidazolyl)propylamide .0.5CHCl₃]	7.37

Same assay, conditions: human plasma from healthy volunteers; angiotensin I difference between 37° and 4° incubation for 2h; linear regression of at least three concentrations; read-out: IC₅₀

pIC50	SMILES
7.82	CC(C)C[C@H](NC(=O)[C@H](Cc1ccccc1)NC(=O)CC1CS(=O)(=O)c2ccccc21)C(=O)N[C@@H](CC1CCCCC1)[C@@H](O)CC(=O)NCCCn1ccnc1 (stereo partly drawn) [El (a), (2,3-Dihydro-1,1-dioxobenzothiophene-3-yl)acetyl-Phe-Leu-ACHPA 3-(1-imidazolyl)propylamide .H₂O]
7.57	CC(C)C[C@H](NC(=O)[C@H](Cc1ccccc1)NC(=O)CC1CS(=O)(=O)c2ccccc21)C(=O)N[C@@H](CC1CCCCC1)[C@@H](O)CC(=O)NCCCN1CCCC1=O (stereo partly drawn) [Example E3, (2,3-Dihydro-1,1-dioxobenzothiophene-3-yl)acetyl-Phe-Leu-ACHPA 3-(2-oxopyrrolidin-1-yl) propylamide]
7.49	CC(C)C[C@H](NC(=O)[C@H](Cc1ccccc1)NC(=O)CC1COc2ccc(CN)cc21)C(=O)N[C@@H](CC1CCCCC1)[C@@H](O)CC(=O)NCCCn1ccnc1 (stereo partly drawn) [Example E13, (5-(Aminomethyl)-2,3-dihydrobenzofuran-3-yl)acetyl-Phe-Leu-ACHPA 3-(1-imidazolyl)propylamide .2(CF₃CO₂H).H₂O]
7.52	COC(=O)CCCCNC(=O)C[C@H](O)[C@H](CC1CCCCC1)NC(=O)[C@H](CC(C)C)NC(=O)[C@H](Cc1ccccc1)NC(=O)CC1CS(=O)(=O)c2ccccc21 (stereo partly drawn) [Example E18, (2,3-Dihydro-1,1-dioxobenzothiophene-3-yl)acetyl-Phe-Leu-ACHPA-NH(CH₂)CO₂Me.0.5H₂O]
7.35	CC(C)C[C@H](NC(=O)[C@H](Cc1ccccc1)NC(=O)CC1CS(=O)(=O)c2ccccc21)C(=O)N[C@@H](CC1CCCCC1)[C@@H](O)CC(=O)NCCCCC(=O)O (stereo partly drawn) [Example E19, (2,3-Dihydro-1,1-dioxobenzothiophene-3-yl)acetyl-Phe-Leu-ACHPA-NH(CH₂)₄CO₂H]
7.02	CC(C)C[C@H](NC(=O)[C@H](Cc1ccccc1)NC(=O)CC1CS(=O)(=O)c2ccccc21)C(=O)N[C@@H](CC1CCCCC1)[C@@H](O)CC(=O)NCCN1CCN(C)CC1 (stereo partly drawn) [Example E22, (2,3-Dihydro-1,1-dioxobenzothiophene-3-yl)acetyl-Phe-Leu-ACHPA 2-(4-methylpiperazin-1-yl)ethylamide .2.5H₂O]
7.92	CC(C)C[C@H](NC(=O)[C@H](Cc1ccccc1)NC(=O)CCCC1Cc2ccc(N)cc2S1(=O)=O)C(=O)N[C@@H](CC1CCCCC1)[C@@H](O)CC(=O)NCCCn1ccnc1 (stereo partly drawn) [Example E34a, 4-(6-Amino-2,3-dihydro-1,1-dioxobenzothiophene-2-yl)butanoyl-Phe-Leu-ACHPA 3-(1-imidazolyl)propylamide]
7.36	CC(C)C[C@H](NC(=O)[C@H](Cc1ccccc1)NC(=O)CC1CS(=O)(=O)c2cc(CN)ccc21)C(=O)N[C@@H](CC1CCCCC1)[C@@H](O)CC(=O)NCCCC(=O)O (stereo partly drawn) [Example E37, (6-(Aminomethyl)-2,3-dihydro-1,1-dioxobenzothiophene-3-yl)acetyl-Phe-Leu-ACHPA-NH(CH₂)₃CO₂H .CF₃CO₂H]
7.92	CC(C)C[C@H](NC(=O)[C@H](Cc1ccccc1)NC(=O)CC1CS(=O)(=O)c2ccc(CN)cc21)C(=O)N[C@@H](CC1CCCCC1)[C@@H](O)CC(=O)NCCCn1ccnc1 (stereo partly drawn) [Example E43, (5-(Aminomethyl)-2,3-dihydro-1,1-dioxobenzothiophene-3-yl)acetyl-Phe-Leu-ACHPA 3-(1-imidazolyl)propylamide .3CF₃CO₂H.H₂O]
7.32	CC(C)C[C@H](NC(=O)[C@H](Cc1ccccc1)NC(=O)CC1COc2ccc(CNCC(=O)O)cc21)C(=O)N[C@@H](CC1CCCCC1)[C@@H](O)CC(=O)NCCCn1ccnc1 (stereo partly drawn) [Example E44, (5- (Carboxymethylaminomethyl)-2,3-dihydrobenzofuran-3-yl)acetyl-Phe-Leu-ACHPA 3-(1-imidazolyl)propylamide .3(CF₃CO₂H)]
7.85	CC(C)C[C@H](NC(=O)[C@H](Cc1ccccc1)NC(=O)CCCC1Cc2ccccc2S1(=O)=O)C(=O)N[C@@H](CC1CCCCC1)[C@@H](O)CC(=O)NCCCn1ccnc1 (stereo partly drawn) [Example E50a, 4-(2,3-Dihydro-1,1-dioxobenzothiophene-2-yl)butanoyl-Phe-Leu-ACHPA 3-(1-imidazolyl)propylamide]
7.70	CC(C)C[C@H](NC(=O)[C@H](Cc1ccccc1)NC(=O)CC1CS(=O)(=O)c2cc(CN)ccc21)C(=O)N[C@@H](CC1CCCCC1)[C@@H](O)CC(=O)NCCCn1ccnc1 (stereo partly drawn) [Example E52, (6-(Aminomethyl)-2,3-dihydro-1,1-dioxobenzothiophene-3-yl)acetyl-Phe-Leu-ACHPA 3-(1-imidazolyl)propylamide .3(CF₃CO₂H)]

SMILES	pIC50
CC(C)C[C@H](NC(=O)[C@H](Cc1ccccc1)NC(=O)CC1CS(=O)(=O)c2ccccc21)C(=O)N[C@@H](CC1CCCCC1)[C@@H](O)CC(=O)NCCCCn1ccnc1 (stereo partly drawn) [Example E14, (2,3-Dihydro-1,1-dioxobenzothiophene-3-yl)acetyl-Phe-Leu-ACHPA 4-(1-imidazolyl)butylamide .HCl.2H₂O]	7.43

Same assay, conditions: read-out: IC₅₀; human plasma from healthy volunteers; angiotensin I difference between 37° and 4° incubation for 2h; linear regression of at least three concentrations

SMILES	pIC50
CC(C)C[C@H](NC(=O)[C@H](Cc1ccccc1)NC(=O)CC1CS(=O)(=O)c2cc(CNC(=O)OC(C)(C)C)ccc21)C(=O)N[C@@H](CC1CCCCC1)[C@@H](O)CC(=O)NCCCn1ccnc1 (stereo partly shown) [Example E51]	7.28
